Laboratory results reported in patent US8071797B2 (priority 2008, dated 2011).
pIC50: −log10 of the molar value.

biological target: T1, HCV polymerase (NS5B570n-Con1) (Hepatitis C virus genotype 1b, UniProt Q9WMX2); test: HCV NS5B RNA polymerase activity assay; assay type: biochemical, HCV Con1 strain; conditions: IC50 NS5B polymerase assay, Table I
T1 construct: contains a 21 amino acid deletion at the C-terminus relative to the full-length HCV polymerase; 6-histidine (N); made in house; host or cells: E. coli BL21 (DE) pLysS
Description: The enzymatic activity of HCV polymerase (NS5B570n-Con1) was measured as the incorporation of radiolabeled nucleotide monophosphates into acid insoluble RNA products. Unincorporated radiolabeled substrate was removed by filtration and scintillant was added to the washed and dried filter plate containing radiolabeled RNA product. The amount of RNA product generated by NS5B570-Con1 at the end of the reaction was directly proportional to the amount of light emitted by the scintillant.
The N-terminal 6-histidine tagged HCV polymerase, derived from HCV Con1 strain, genotype 1b (NS5B570n-Con1) contains a 21 amino acid deletion at the C-terminus relative to the full-length HCV polymerase and was purified from E. coli strain BL21 (DE) pLysS. The construct, containing the coding sequence of HCV NS5B Con1 (GenBank accession number AJ242654) was inserted into the plasmid construct pETI 7b, downstream of a T7 promoter expression cassette and transformed into E. coli. A single colony was grown overnight as a starter culture and later used inoculate 10 L of LB media supplemented with 100 μg/mL ampicillin at 37° C. Protein expression was induced by the addition of 0.25 mM isopropyl-β-D-thiogalactopyranoside (IPTG) when optical density at […] of the culture was between 0.6 and 0.8 and cells were harvested after 16 to 18 h at 30° C. NS5B570n-Con1 was purified to homogeneity using a three-step protocol including subsequent column chromatography on Ni-NTA, SP-Sepharose HP and Superdex 75 resins.
Each 50 μl enzymatic reaction contained 20 nM RNA template derived from the complementary sequence of the Internal Ribosome Entry Site (cIRES), 20 nM NS5B570n-Con1 enzyme, 0.5 μCi of tritiated UTP (Perkin Elmer catalog no. TRK-412; specific activity: 30 to 60 Ci/mmol; stock solution concentration from 7.5×10^-5 M to 20.6×10^-6 M), 1 μM each ATP, CTP, and GTP, 40 mM Tris-HCl pH 8.0, 40 mM NaCl, 4 mM DTT (dithiothreitol), 4 mM MgCl2, and 5 μl of compound serial diluted in DMSO. Reaction mixtures were assembled in 96-well filter plates (cat #MADVN0B, Millipore Co.) and incubated for 2 h at 30° C. Reactions were stopped by addition of 10% final (v/v) trichloroacetic acid and incubated for 40 min at 4° C. Reactions were filtered, washed with 8 reaction volumes of 10% (v/v) trichloroacetic acetic acid, 4 reaction volumes of 70% (v/v) ethanol, air dried, and 25 μl of scintillant (Microscint 20, Perkin-Elmer) was added to each reaction well.
The amount of light emitted from the scintillant was converted to counts per minute (CPM) on a Topcount® plate reader (Perkin-Elmer, Energy Range: Low, Efficiency Mode Normal, Count Time: 1 min, Background Subtract: none, Cross talk reduction: Off).
Data was analyzed in Excel® (Microsoft®) and ActivityBase® (idbsg). The reaction in the absence of enzyme was used to determine the background signal, which was subtracted from the enzymatic reactions. Positive control reactions were performed in the absence of compound, from which the background corrected activity was set as 100% polymerase activity. All data was expressed as a percentage of the positive control. The compound concentration at which the enzyme-catalyzed rate of RNA synthesis was reduced by 50% (IC50) was calculated by fitting
[formula] equation (t) to the data.where “Y” corresponds to the relative enzyme activity (in %), “% Min” is the residual relative activity at saturating compound concentration, “% Max” is the relative maximum enzymatic activity, “X” corresponds to the compound concentration, and “S” is the Hill coefficient (or slope).

Compound | pIC50
CNC(=O)c1c(-c2ccc(Oc3ccc(F)cc3)cc2)oc2cc(NS(C)(=O)=O)c(OC)cc12 [Compound I-43] | 6.62
CNC(=O)c1c(-c2ccc(Oc3ccc(F)cc3)cc2)oc2cc(N(CCCN(C)S(C)(=O)=O)S(C)(=O)=O)c(C3CC3)cc12 [Compound I-117] | 7.96
CNC(=O)c1c(-c2ccc(Oc3ccc(F)c(F)c3)cc2)oc2cc(N(CCO)S(C)(=O)=O)c(OC)cc12 [Compound I-45] | 7.32
CNC(=O)c1c(-c2ccc(Oc3ccc(F)cc3)cc2)oc2cc(N(CCN)S(C)(=O)=O)c(OC)cc12 [Compound I-53] | 6.60
CNC(=O)c1c(-c2ccc(Oc3cccc(C#N)c3)cc2)oc2cc(N(CCO)S(C)(=O)=O)c(OC)cc12 [Compound I-47] | 6.47
CNC(=O)c1c(-c2ccc(Nc3c(F)cccc3F)cc2)oc2cc(N(CCO)S(C)(=O)=O)c(OC)cc12 [Compound I-25] | 6.91
CNC(=O)c1c(-c2ccc(Oc3ccc(F)cc3)cc2)oc2cc(N(CCO)S(C)(=O)=O)c(C)cc12 [Compound I-55] | 7.36
CNC(=O)c1c(-c2ccc(Oc3ccccc3F)cc2)oc2cc(N(C)S(C)(=O)=O)c(OC)cc12 [Compound I-36] | 7.32
CNC(=O)c1c(-c2ccc(Oc3ccccc3)cc2)oc2cc(-c3c(C)n[nH]c3C)c(C3CC3)cc12 [Compound I-101] | 6.50
CNC(=O)c1c(-c2ccc(Oc3ccc(F)cc3)cc2)oc2cc(N(C)S(C)(=O)=O)c(Cl)cc12 [Compound I-66] | 7.54
CNC(=O)c1c(-c2ccc(Oc3ccc(F)cc3)cc2)oc2cc(N(C3CCC(N)CC3)S(C)(=O)=O)c(C3CC3)cc12 (stereo not drawn) [Compound I-98, 6-[(4-Amino-cyclohexyl)-methanesulfonyl-amino]-5-cyclopropyl-2-[4-(4-fluoro-phenoxy)-phenyl]-benzofuran-3-carboxylic acid methylamide] | 7.36
CNC(=O)c1c(-c2ccc(Oc3ccc(F)cc3)cc2)oc2cc(N(CCCO)S(C)(=O)=O)c(C3CC3)cc12 [Compound I-106] | 7.74
CNC(=O)c1c(-c2ccc(Oc3ccc(F)cc3)cc2)oc2cc(N(CC3CCOC3)S(C)(=O)=O)c(C3CC3)cc12 (stereo not drawn) [Compound I-60] | 6.94
CNC(=O)c1c(-c2ccc(Nc3ccc(F)cc3)cc2)oc2cc(N(CCO)S(C)(=O)=O)c(OC(C)C)cc12 [Compound I-31] | 7.04
CNC(=O)c1c(-c2ccc(Oc3ccc(F)cc3)cc2)oc2cc(N(CCCCN)S(C)(=O)=O)c(C3CC3)cc12 [Compound I-92] | 7.25
CNC(=O)c1c(-c2ccc(Nc3cc(F)cc(F)c3)cc2)oc2cc(N(CCO)S(C)(=O)=O)c(OC)cc12 [Compound I-16] | 6.76
CNC(=O)c1c(-c2ccc(Oc3ccccn3)cc2)oc2cc(N(CCO)S(C)(=O)=O)c(OC)cc12 [Compound I-127, 6-[(2-Hydroxy-ethyl)-methanesulfonyl-amino]-5-methoxy-2-[4-(pyridin-2-yloxy)-phenyl]-benzofuran-3-carboxylic acid methylamide] | 6.21
CNC(=O)c1c(-c2ccc(Oc3ccc(F)cc3)cc2)oc2cc(N(C3CCOCC3)S(C)(=O)=O)c(C3CC3)cc12 [Compound I-72] | 6.23
CNC(=O)c1c(-c2ccc(Oc3ccc(F)cc3)cc2)oc2cc(N(CCNS(C)(=O)=O)S(C)(=O)=O)c(C3CC3)cc12 [Compound I-80] | 6.75
CNC(=O)c1c(-c2ccc(Oc3ccc(F)c(F)c3)cc2)oc2cc(N(CCO)S(C)(=O)=O)c(OC(C)C)cc12 [Compound I-50] | 6.58
CNC(=O)c1c(-c2ccc(Oc3ccc(F)cc3)cc2)oc2cc(C3CCCN3S(C)(=O)=O)c(OC)cc12 (stereo not drawn) [Compound I-112, 2-[4-(4-Fluoro-phenoxy)-phenyl]-6-(1-methanesulfonyl-pyrrolidin-2-yl)-5-methoxy-benzofuran-3-carboxylic acid methylamide] | 6.46

Compound | pIC50
CNC(=O)c1c(-c2ccc(Nc3ccc(F)cc3)cc2)oc2cc(N(CCO)S(C)(=O)=O)c(C3CC3)cc12 [Compound I-62] | 7.89
CCN(c1cc2oc(-c3ccc(Oc4ccccc4F)cc3)c(C(=O)NC)c2cc1OC)S(C)(=O)=O [Compound I-23] | 7.28
CNC(=O)c1c(-c2ccc(Oc3cccc(F)c3)cc2)oc2cc(N(CCO)S(C)(=O)=O)c(OC(C)C)cc12 [Compound I-26] | 7.09
CNC(=O)c1c(-c2ccc(Oc3cccc(F)c3F)cc2)oc2cc(N(CCO)S(C)(=O)=O)c(OC)cc12 [Compound I-22] | 7.26
CNC(=O)c1c(-c2ccc(Oc3ccc(F)cc3)cc2)oc2cc(N(CCN)C(C)=O)c(OC)cc12 [Compound I-54] | 5.91
CNC(=O)c1c(-c2ccc(Oc3ccc(C#N)cc3)cc2)oc2cc(N(CCO)S(C)(=O)=O)c(OC)cc12 [Compound I-48] | 5.97
CNC(=O)c1c(-c2ccc(Oc3ccccc3)cc2)oc2cc(-c3ccc[nH]3)c(C3CC3)cc12 [Compound I-89, 5-Cyclopropyl-2-(4-phenoxy-phenyl)-6-(1H-pyrrol-2-yl)-benzofuran-3-carboxylic acid methylamide] | 6.14
CNC(=O)c1c(-c2ccc(Oc3ccc(F)cc3)cc2)oc2cc(N(Cc3ccncc3)S(C)(=O)=O)c(C3CC3)cc12 [Compound I-71] | 8.05
CCc1cc2c(C(=O)NC)c(-c3ccc(Oc4ccc(F)cc4)cc3)oc2cc1N(C)S(C)(=O)=O [Compound I-52] | 6.89
CNC(=O)c1c(-c2ccc(Nc3cccc(F)c3)cc2)oc2cc(N(CCO)S(C)(=O)=O)c(OC(C)C)cc12 [Compound I-29] | 7.03
CNC(=O)c1c(-c2ccc(Oc3ccc(F)cc3)cc2)oc2cc(N(CCCS(C)(=O)=O)S(C)(=O)=O)c(C3CC3)cc12 [Compound I-114] | 7.68
CNC(=O)c1c(-c2ccc(Nc3cccc(C#N)c3)cc2)oc2cc(N(CCO)S(C)(=O)=O)c(OC)cc12 [Compound I-12] | 6.53
CNC(=O)c1c(-c2ccc(Oc3ccc(F)cc3)cc2)oc2cc(N(CCCC#N)S(C)(=O)=O)c(C3CC3)cc12 [Compound I-96] | 8.15
CNC(=O)c1c(-c2ccc(Oc3ccccc3F)cc2)oc2cc(N(CCO)S(C)(=O)=O)c(C3CC3)cc12 [Compound I-61] | 7.46
CNC(=O)c1c(-c2ccc(Oc3ccc(F)cc3)cc2)oc2cc(N([C@H]3CC[C@@H](O)CC3)S(C)(=O)=O)c(C3CC3)cc12 [Compound I-99] | 7.64
CNC(=O)c1c(-c2ccc(Oc3ccc(F)cc3)cc2)oc2cc(N(CC(C)(C)O)S(C)(=O)=O)c(C3CC3)cc12 [Compound I-78] | 7.26
CCN(c1cc2oc(-c3ccc(Oc4ccc(F)cc4)cc3)c(C(=O)NC)c2cc1C1CC1)S(C)(=O)=O [Compound I-42] | 6.84
CNC(=O)c1c(-c2ccc(Oc3ccc(F)cc3)cc2)oc2cc(C(C)(C)O)c(C3CC3)cc12 [Compound I-110, 5-Cyclopropyl-2-[4-(4-fluoro-phenoxy)-phenyl]-6-(1-hydroxy-1-methyl-ethyl)-benzofuran-3-carboxylic acid methylamide] | 7.41
CNC(=O)c1c(-c2ccc(Oc3cccc(Cl)c3)cc2)oc2cc(N(CCO)S(C)(=O)=O)c(OC)cc12 [Compound I-38] | 7.30
CNC(=O)c1c(-c2ccc(Nc3ccccc3F)cc2)oc2cc(N(CCO)S(C)(=O)=O)c(OC)cc12 [Compound I-5] | 7.47
CNC(=O)c1c(-c2ccc(Oc3ccc(F)cc3)cc2)oc2cc(N(CC3COC3)S(C)(=O)=O)c(C3CC3)cc12 [Compound I-70, 5-Cyclopropyl-2-[4-(4-fluoro-phenoxy)-phenyl]-6-(methanesulfonyl-oxetan-3-ylmethyl-amino)-benzofuran-3-carboxylic acid methylamide] | 7.89
